The text below walks through data of ChEMBL document CHEMBL3887002, “Biaryl ether sulfonamides and their use as therapeutic agents” (2016).

The structures appear in SMILES notation.

The experiment deals with Sodium channel protein type 9 subunit alpha (Homo sapiens, UniProt Q15858). Put plainly: Electrophysiological Assay (In vitro Assay): Patch voltage clamp electrophysiology allows for the direct measurement and quantification of block of voltage-gated sodium channels (Nav's), and allows the determination of the time- and voltage-dependence of block which has been interpreted as differential binding to the resting, open, and inactivated states of the sodium channel (Hille, B., Journal of General Physiology (1977), 69: 497-515).The following patch voltage clamp electrophysiology studies were performed on representative compounds of the invention using human embryonic kidney cells (HEK), permanently transfected with an expression vector containing the full-length cDNA coding for the desired human sodium channel α-subunit, grown in culture media containing 10% FBS, 1% PSG, and 0.5 mg/mL G418 at 37° C. with 5% CO2. […] Nav1.7 and Nav1.5 cDNAs (NM_00297. The class given is cell-based, HEK293.
Sodium channel protein type 9 subunit alpha, sequence (Q15858 whole entry): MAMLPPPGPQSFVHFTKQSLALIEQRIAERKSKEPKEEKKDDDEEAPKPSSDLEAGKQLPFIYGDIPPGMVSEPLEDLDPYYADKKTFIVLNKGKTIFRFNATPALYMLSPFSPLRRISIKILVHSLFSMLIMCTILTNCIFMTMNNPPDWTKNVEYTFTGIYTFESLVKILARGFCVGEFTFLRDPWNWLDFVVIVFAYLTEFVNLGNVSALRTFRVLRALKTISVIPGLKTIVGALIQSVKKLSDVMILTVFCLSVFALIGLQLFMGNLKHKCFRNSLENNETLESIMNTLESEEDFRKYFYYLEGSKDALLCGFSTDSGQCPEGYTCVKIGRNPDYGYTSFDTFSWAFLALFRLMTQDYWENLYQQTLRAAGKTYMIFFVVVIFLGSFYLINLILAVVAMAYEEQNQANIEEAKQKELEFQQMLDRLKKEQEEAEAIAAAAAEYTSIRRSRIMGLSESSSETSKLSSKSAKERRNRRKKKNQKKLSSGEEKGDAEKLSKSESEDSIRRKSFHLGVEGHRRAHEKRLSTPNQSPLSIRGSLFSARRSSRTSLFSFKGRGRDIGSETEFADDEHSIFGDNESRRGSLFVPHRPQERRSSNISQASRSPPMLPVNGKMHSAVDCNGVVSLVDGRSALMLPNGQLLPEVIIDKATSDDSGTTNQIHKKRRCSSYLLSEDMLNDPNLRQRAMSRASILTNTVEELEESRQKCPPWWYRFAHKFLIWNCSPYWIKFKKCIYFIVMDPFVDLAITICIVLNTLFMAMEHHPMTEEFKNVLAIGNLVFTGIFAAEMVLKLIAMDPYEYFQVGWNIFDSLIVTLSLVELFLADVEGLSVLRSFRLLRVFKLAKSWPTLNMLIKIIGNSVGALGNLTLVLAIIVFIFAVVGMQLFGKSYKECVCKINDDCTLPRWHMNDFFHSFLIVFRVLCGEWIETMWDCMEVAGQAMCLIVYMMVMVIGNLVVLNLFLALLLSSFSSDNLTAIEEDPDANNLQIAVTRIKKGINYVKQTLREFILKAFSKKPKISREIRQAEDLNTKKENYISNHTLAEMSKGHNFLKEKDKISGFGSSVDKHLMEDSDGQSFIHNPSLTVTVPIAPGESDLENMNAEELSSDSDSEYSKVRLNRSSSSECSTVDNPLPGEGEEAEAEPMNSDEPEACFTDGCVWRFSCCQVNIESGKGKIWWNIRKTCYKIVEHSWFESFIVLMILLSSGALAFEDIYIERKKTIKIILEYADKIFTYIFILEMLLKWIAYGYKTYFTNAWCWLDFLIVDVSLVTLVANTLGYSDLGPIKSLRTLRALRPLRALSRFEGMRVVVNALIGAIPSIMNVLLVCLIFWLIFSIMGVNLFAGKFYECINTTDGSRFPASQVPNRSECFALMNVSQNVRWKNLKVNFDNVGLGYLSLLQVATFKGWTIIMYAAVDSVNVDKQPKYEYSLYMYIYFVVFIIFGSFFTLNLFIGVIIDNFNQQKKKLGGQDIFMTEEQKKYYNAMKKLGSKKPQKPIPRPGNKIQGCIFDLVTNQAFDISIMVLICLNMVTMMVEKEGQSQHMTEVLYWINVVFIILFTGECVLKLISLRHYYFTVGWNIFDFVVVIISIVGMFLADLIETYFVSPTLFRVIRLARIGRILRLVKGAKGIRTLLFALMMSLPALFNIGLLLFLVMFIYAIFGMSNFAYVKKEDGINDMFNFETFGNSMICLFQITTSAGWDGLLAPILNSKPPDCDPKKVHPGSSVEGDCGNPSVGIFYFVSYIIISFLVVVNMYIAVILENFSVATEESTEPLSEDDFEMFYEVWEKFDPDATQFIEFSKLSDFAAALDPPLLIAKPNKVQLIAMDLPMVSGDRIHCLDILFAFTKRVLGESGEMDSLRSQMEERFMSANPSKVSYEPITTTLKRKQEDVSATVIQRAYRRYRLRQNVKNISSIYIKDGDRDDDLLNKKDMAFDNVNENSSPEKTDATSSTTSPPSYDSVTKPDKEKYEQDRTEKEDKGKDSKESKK

Take `O=S(=O)(Nc1ncccc1F)c1cc(F)c(Oc2ccc(Cl)cc2-c2cccc3nccn23)cc1F`: the IC50 stood at 0.0232 µM.

As a reminder, the IC50 is the concentration that gives 50% inhibition. Lower therefore signals greater potency.
